In patent publication US20090257975A1, “Solid and Semi-Solid Polymeric Ionic Conjugates” (Pfizer Inc, priority 2002, published 2009):
≈ marks a conversion by molar mass, not a printed value. Where a name gives a salt, the structure may show the parent alone.

Assay: Solubility determination of ziprasidone in pH 7.4 PBS (shaken vials, HPLC)
Assay type: physicochemical
Details: concentration of ziprasidone in solution
Description: The following samples were evaluated for solubility: • 1. Ziprasidone-polymer ionic conjugate FIVE (40% ziprasidone, 60% polymer composed of Lactide/Glycolide/Malic acid at molar ratios of 4:1:0.65M) • 2. Ziprasidone-polymer ionic conjugate in gel former (Solution of Conjugate FIVE in a typical gel former, The conjugate was dissolved in a mixture (1:1 by weight) with a mixture of two gel formers made individually of PEG-400 grafted with Trimethylene carbonate/Caprolactone/Glycolide and PEG-400 grafted with Lactide/Glycolide • 3. Ziprasidone mesylate salt • 4. Ziprasidone free base
Excess of each of the above sample were placed in a screw-cap vial with 2 ml of pH 7.4, PBS (Dulbecco's Phosphate-Buffered Saline) solution, and the vials were shaken continuously for 7 days. Ziprasidone free base and its mesylate salt were used as controls. The concentration of ziprasidone in solution was determined at 15 minutes, 6 hours, 24 hours, and 7 days. The HPLC samples were prepared by filtering each suspension through a 0.22-μm syringe filter without any additional dilutions

| SMILES | solubility at 6 h (Dulbecco's phosphate-buffered saline (PBS), aqueous buffer, thermodynamic from solid, time point 6 hours) [µg/mL] | Solubility (time point 15 minutes) | Solubility (time point 7 days) | solubility at 15 min (Dulbecco's phosphate-buffered saline (PBS), aqueous buffer, thermodynamic from solid, time point 15 minutes) [µg/mL] | Solubility (time point 6 hours) [µg/mL] |
| --- | --- | --- | --- | --- | --- |
| O=C1Cc2cc(CCN3CCN(c4nsc5ccccc45)CC3)c(Cl)cc2N1 [Ziprasidone Free Base, 5-[2-[4-(1,2-benzisothiazol-3-yl)-1-piperazinyl]ethyl]-6-chloro-1,3-dihydro-2H-indol-2-one] | 0.2 (≈ 0.484 µM) | Below | Below |  |  |
| O=C1Cc2cc(CCN3CCN(c4nsc5ccccc45)CC3)c(Cl)cc2N1 [Ziprasidone Mesylate] |  |  | 1.3 µg/mL | 1.5 | 1.1 |
